≈ marks a conversion by molar mass, not a printed value. Like-named read-outs stand apart in the source and are kept apart here.
Columns and labels:
[1] = cited from earlier work; for redox potential: coenzymes and phenanthroline quinone, background values
[2] = Storage stability of reagent solution (response current of sensors made with stored vs fresh reagent solution); format: physicochemical
Excerpt: A sensor having the configuration illustrated in FIG. 1 was manufactured. The detailed procedure will now be described. First, by sputtering palladium, 8 nm-thick conductive layer 3 was deposited on substrate 2 which was 30 mm in length, 7 mm in width and 0.2 mm in thickness and which contained polyethylene terephthalate as its main component. Thereafter, a 0.1 mm-width non-conductive track was formed by laser ablation, to form electrodes 31 to 33. Electrode 31 was designed to function as a working electrode, electrode 32 as a counter electrode, and electrode 33 as a sensing electrode.
Using a microsyringe, 1.2 μL of each reagent solution was applied to form reagent layer 4 in a shape of 2.2 mm diameter-circular. After formation of reagent layer 4, spacer 5 (0.145 mm thick) having a cut-out with a length of 3.4 mm a width of 1.2 mm and cover 6 were sequentially attached to the substrate having the electrodes formed thereon. In this way a sensor was manufactured that has a capillary having a volume of 0.6 μL. […]
Response current values of each sensor were measured using a series of glucose solutions of known concentrations.
By adding as an additive imidazole, histamine, histidine, 2-aminoimidazole, 4,5-bis(hydroxymethyl)imidazole, 1,2,4-triazole, 3-amino-1,2,4-triazole, 4-amino-1,2,4-triazole, 3,5-diamino-1,2,4-triazole, 2-methylimidazole, or 1,2-dimethylimidazole, reagent solutions were prepared that contain the same composition as reagent solution C except the type and concentration of the additive. The concentrations of the additives are as indicated in Tables below and the accompanying drawings.
Further, sensors were manufactured using the same reagent solutions stored at 25° C. and 5% humidity for 24 hours after preparation. […]

[3] = Stability test (exposure test) of sensor at 30° C., 80% humidity; conditions: for change in the response current value after the exposure test: 24 hours at 30° C., 80% relative humidity; for Sensor stability % change in response current value between before and after 24 hours exposure at 30° C. and 80% humidity: additive in reagent layer, additive conc. 1.0-5.0 mM
Method: Sensors were manufactured in the same manner as described in section [1-5] using the reagent solutions prepared above. The sensors manufactured were exposed to an environment of high temperature and humidity (30° C., 80% relative humidity) for 24 hours. Response current values of the pre- and post-exposed sensors were measured for a series of glucose solutions of known concentrations.
Sensors were manufactured using fresh reagent solutions having the same compositions as described above. The sensors were subjected to an exposure experiment where they were allowed to stand for 24 hours at 30° C. and 80% humidity. Response current values of non-exposed sensors (i.e., sensors stored under the ambient condition (25° C., 5% humidity) for 24 hours) and the exposed sensors were measured for a series of glucose solutions of known concentrations.

[4] = Solubility in water of mediators; format: physicochemical; conditions: for solubility: water
Excerpt: Solubilities in water of Compounds A, B, H′, I, I′ and J and disodium 9,10-phenanthrenequinone 2,7-disulfonate are given in Table 1.

[5] = Cyclic voltammetry of mediators, redox potential vs Ag|AgCl; format: physicochemical; conditions: reference Ag|AgCl; for Eox (V): potential at peak oxidation current; for Ered (V): potential at peak reduction current; for EO′ (V) [(Ered + Eox)/2]: redox potential, average of Ered and Eox
Method: Redox potential (EO′) was calculated in the following procedure. Specifically, cyclic voltammetry using Ag|AgCl as the reference electrode was performed under the same conditions as those in Examples to be described later. Redox potential (EO′) was found as an average of the potential value at the peak oxidation current (Eox) and the potential value at the peak reduction current (Ered), i.e., [(Ered+Eox)/2].
Cyclic voltammetry was performed for the resultant reagent solution using the aforementioned sensor electrode. As a reference electrode, a silver/silver chloride (saturated potassium chloride) electrode (hereinafter “Ag|AgCl”) was used. The reference electrode was led to vent hole 61 of the sensor electrode via a salt bridge. A potentiostat was used for measurement. The electrodes and the potentiostat used were those commonly used in electrochemistry. These instruments can be purchased from BAS Inc., for example.
In cyclic voltammetry, a potential applied to the working electrode was swept linearly with respect to time. The sweeping rate was set to 0.1 V/second. First, a first potential was applied to the working electrode, and the electrode potential was swept toward negative potentials from the first potential to a second potential. The electrode potential was then swept back from the second potential to the first potential toward positive potentials. The first and second potentials were 0.2 V and […], respectively, […]

[6] = Redox / oxidation potentials stated in the description; format: physicochemical

Compound: O=C1O[C@H]([C@@H](O)CO)C(O)=C1O [ascorbic acid]
- oxidation potential ([1]; interfering substance, background value): approximately −140 mV

Compound: O=C(O)c1cc(C(=O)O)c2c(n1)C(=O)C(=O)c1cc(C(=O)O)[nH]c1-2 [PQQ, pyrroloquinoline quinone]
- redox potential [1]: approximately −200 mV

Compound: c1nc[nH]n1 [1,2,4-Triazole]
- Reagent solution stability % change in response current value between before and after 24 hours storage at 25° C. [2]: −12%
- change in the response current value after the exposure test [3]: relatively small change in the response current value
- Sensor stability % change in response current value between before and after 24 hours exposure at 30° C. and 80% humidity [3]: −14%

Compound: N[C@@H](Cc1c[nH]cn1)C(=O)O [Histidine]
- Reagent solution stability % change in response current value between before and after 24 hours storage at 25° C. [2]: −7%
- change in the response current value after the exposure test [3]: relatively small change in the response current value
- Sensor stability % change in response current value between before and after 24 hours exposure at 30° C. and 80% humidity [3]: −12%

Compound: O=C1C(=O)c2cc(-c3ccc(S(=O)(=O)[O-])cc3)ccc2-c2ccccc21.[Na+] [Compound H′]
- solubility ([4]; read-out: Solubility in water): 20 mM
- Eox (V) [5]: −0.14 V
- Ered (V) [5]: −0.21 V
- EO′ (V) [(Ered + Eox)/2] [5]: −0.18 V

Compound: O=C([O-])c1ccc(-c2ccc3c(c2)C(=O)C(=O)c2ccccc2-3)cc1.[Na+] [Compound I]
- solubility ([4]; read-out: Solubility in water): 5 mM
- Eox (V) [5]: −0.14 V
- Ered (V) [5]: −0.22 V
- EO′ (V) [(Ered + Eox)/2] [5]: −0.18 V

Compound: NCCN [Ethylenediamine, reference compound]
- Reagent solution stability % change in response current value between before and after 24 hours storage at 25° C. [2]: −3%
- Sensor stability % change in response current value between before and after 24 hours exposure at 30° C. and 80% humidity [3]: −45%

Compound: NCCCC[C@H](N)C(=O)O [Lysine, reference compound]
- Reagent solution stability % change in response current value between before and after 24 hours storage at 25° C. [2]: −20%
- Sensor stability % change in response current value between before and after 24 hours exposure at 30° C. and 80% humidity [3]: −31%

Compound: O=C1C(=O)c2cc(S(=O)(=O)[O-])ccc2-c2ccccc21.[Na+] [Sodium 9,10-phenanthrenequinone-2-sulfonate]
- solubility [4]: 80 mM
- Eox (V) [5]: −0.12 V
- Ered (V) [5]: −0.18 V
- EO′ (V) [(Ered + Eox)/2] [5]: −0.15 V

Compound: OCc1nc[nH]c1CO [4,5-Bis(hydroxymethyl) imidazole, 4,5-bis(hydroxymethyl)imidazole]
- Reagent solution stability % change in response current value between before and after 24 hours storage at 25° C. [2]: −14%
- change in the response current value after the exposure test [3]: relatively small change in the response current value
- Sensor stability % change in response current value between before and after 24 hours exposure at 30° C. and 80% humidity [3]: −11%

Compound: O=C1C=C(S(=O)(=O)O)c2ccccc2C1=O [1,2-naphthoquinone-4-sulfonic acid]
- redox potential of exemplary electron acceptors [6]: −16 mV

Compound: O=C([O-])c1cc(C(=O)[O-])cc(-c2ccc3c(c2)C(=O)C(=O)c2ccccc2-3)c1.[Na+].[Na+] [Compound J]
- solubility ([4]; read-out: Solubility in water): 50 mM
- Eox (V) [5]: −0.15 V
- Ered (V) [5]: −0.23 V
- EO′ (V) [(Ered + Eox)/2] [5]: −0.19 V

Compound: Nc1ccc2c(c1)C(=O)C(=O)c1ccccc1-2 [Compound B]
- solubility ([4]; read-out: Solubility in water): 1 mM (≈ 223 µg/mL)
- Eox (V) [5]: −0.19 V
- Ered (V) [5]: −0.23 V
- EO′ (V) [(Ered + Eox)/2] [5]: −0.21 V

Compound: NCCCCN [Butanediamine, reference compound]
- Sensor stability % change in response current value between before and after 24 hours exposure at 30° C. and 80% humidity [3]: −51%

Compound: Nc1nc[nH]n1 [3-Amino-1,2,4-triazole]
- Reagent solution stability % change in response current value between before and after 24 hours storage at 25° C. [2]: 0%
- change in the response current value after the exposure test [3]: relatively small change in the response current value
- Sensor stability % change in response current value between before and after 24 hours exposure at 30° C. and 80% humidity [3]: −4%

Compound: Nn1cnnc1 [4-Amino-1,2,4-triazole]
- Reagent solution stability % change in response current value between before and after 24 hours storage at 25° C. [2]: −6%
- change in the response current value after the exposure test [3]: relatively small change in the response current value
- Sensor stability % change in response current value between before and after 24 hours exposure at 30° C. and 80% humidity [3]: −4%

Compound: O=C1C(=O)c2cccnc2-c2ncccc21 [phenanthroline quinone]
- redox potential [1]: approximately 0 mV

Compound: Nc1ncc[nH]1 [2-Aminoimidazole]
- Reagent solution stability % change in response current value between before and after 24 hours storage at 25° C. [2]: −6%
- change in the response current value after the exposure test [3]: relatively small change in the response current value
- Sensor stability % change in response current value between before and after 24 hours exposure at 30° C. and 80% humidity [3]: −7%

Compound: Cc1nccn1C [1,2-Dimethylimidazole]
- Reagent solution stability % change in response current value between before and after 24 hours storage at 25° C. [2]: 2%
- Sensor stability % change in response current value between before and after 24 hours exposure at 30° C. and 80% humidity [3]: −44%

Compound: O=C1C(=O)c2cc([N+](=O)[O-])ccc2-c2ccccc21 [Compound A]
- solubility ([4]; read-out: Solubility in water): 1 mM (≈ 253 µg/mL)
- Eox (V) [5]: −0.10 V
- Ered (V) [5]: −0.13 V
- EO′ (V) [(Ered + Eox)/2] [5]: −0.12 V

Compound: Nc1n[nH]c(N)n1 [3,5-Diamino-1,2,4-triazole]
- Reagent solution stability % change in response current value between before and after 24 hours storage at 25° C. ([2]; additive in reagent solution C composition (PQSA, FAD-GDH), additive conc. 1.0-5.0 mM): −1%
- change in the response current value after the exposure test [3]: relatively small change in the response current value
- Sensor stability % change in response current value between before and after 24 hours exposure at 30° C. and 80% humidity [3]: −2%

Compound: O=C1C(=O)c2ccccc2-c2ccccc21 [9,10-phenanthrenequinone]
- redox potential of exemplary electron acceptors [6]: −180 mV

Compound: Cc1ncc[nH]1 [2-Methylimidazle, 2-methylimidazole]
- Reagent solution stability % change in response current value between before and after 24 hours storage at 25° C. [2]: 1%
- Sensor stability % change in response current value between before and after 24 hours exposure at 30° C. and 80% humidity [3]: −44%

Compound: O=C(NCCS(=O)(=O)[O-])c1ccc(-c2ccc3c(c2)C(=O)C(=O)c2ccccc2-3)cc1.[Na+] [Compound I′]
- solubility ([4]; read-out: Solubility in water): 20 mM
- Eox (V) [5]: −0.14 V
- Ered (V) [5]: −0.22 V
- EO′ (V) [(Ered + Eox)/2] [5]: −0.18 V

Compound: Cc1cc2nc3c(=O)[nH]c(=O)nc-3n(C[C@H](O)[C@H](O)[C@H](O)COP(=O)(O)OP(=O)(O)OC[C@H]3O[C@@H](n4cnc5c(N)ncnc54)[C@H](O)[C@@H]3O)c2cc1C [FAD, flavin adenine dinucleotide]
- redox potential [1]: approximately −300 mV

Compound: NCCc1c[nH]cn1 [Histamine]
- Reagent solution stability % change in response current value between before and after 24 hours storage at 25° C. [2]: −2%
- change in the response current value after the exposure test [3]: relatively small change in the response current value
- Sensor stability % change in response current value between before and after 24 hours exposure at 30° C. and 80% humidity [3]: −3%

Compound: O=C1C(=O)c2cc(S(=O)(=O)[O-])ccc2-c2ccc(S(=O)(=O)[O-])cc21.[Na+].[Na+] [Disodium 9,10-phenanthrenequinone-2,7-disulfonate]
- Solubility in water [4]: ≥200 mM
- Eox (V) [5]: −0.06 V
- Ered (V) [5]: −0.18 V
- EO′ (V) [(Ered + Eox)/2] [5]: −0.12 V

Compound: N=C(N)NCCC[C@H](N)C(=O)O [Arginine, reference compound]
- Reagent solution stability % change in response current value between before and after 24 hours storage at 25° C. [2]: −25%
- Sensor stability % change in response current value between before and after 24 hours exposure at 30° C. and 80% humidity [3]: −12%

Compound: O=C1C(=O)c2cc(S(=O)(=O)O)ccc2-c2ccccc21 [9,10-phenanthrenequinone-2-sulfonic acid]
- redox potential of exemplary electron acceptors [6]: −140 mV

Compound: Ethyleneamine [reference compound]
- Sensor stability % change in response current value between before and after 24 hours exposure at 30° C. and 80% humidity [3]: −77%
